Data reported in patent US9598440B2, “Inhibitors of IRAK4 activity” (MERCK SHARP & DOHME CORP., priority 2012, dated 2017).

Biological target: IRAK4 (Homo sapiens (Human), UniProt Q9NWZ3)
Experiment: Determination of IRAK4 kinase activity (IMAP fluorescence polarization, phosphorylation of fluorescent peptide substrate)
Type: biochemical
Conditions: 0.5 nM GST tagged IRAK4, 100 nM peptide substrate RP7030, 100 μM ATP, 30 minutes at 25° C.
Protocol: The kinase activity of IRAK4 is determined by its ability to catalyze the phosphorylation of a fluorescent polypeptide substrate. The extent of phosphorylation is measured using IMAP technology (Molecular Devices) where the phosphorylated fluorescent substrate binds to the large M(III)-based nanoparticles which reduces the rotational speed of the substrate and thus increases its fluorescent polarization (FP).
Procedure: A 20 μl reaction mixture contains 10 mM TriHCl, pH 7.2, 0.5 nM GST tagged IRAK4 (SignalChem), 100 nM fluorescent peptide substrate (RP7030, Molecular Devices), 100 μM ATP, 1 mM DTT, 1 mM MgCl2, and 0.01% Tween 20. The reaction is initiated by the addition of ATP. After incubation for 30 minutes at 25° C., 60 μl of Progressive IMAP Reagent (Molecular Devices) is added to stop the reaction. Change in RP7030's FP is determined by a FP reader (Analyst HT, LJL BioSystems). Analytical LCMS Conditions: • Condition A: Phenomenex Luna C18 (4.6×250 mm), 95:5 to 5:95 water:MeCN (0.05% TFA), over 10 min, hold 6 min. • Condition B: Agilent SBC (3.0×50 mm), solvent A: H20-0.1% TFA; • solvent B: ACN-0.1% TFA; GRADIENT TABLE: 0 min:10% B, 0.3 min: 10% B, 1.5 min: 95% B, 2.70 min: 95% B, 2.76 min: 10% B, stop time 3.60 min.

Sequence of IRAK4 (Q9NWZ3 whole entry): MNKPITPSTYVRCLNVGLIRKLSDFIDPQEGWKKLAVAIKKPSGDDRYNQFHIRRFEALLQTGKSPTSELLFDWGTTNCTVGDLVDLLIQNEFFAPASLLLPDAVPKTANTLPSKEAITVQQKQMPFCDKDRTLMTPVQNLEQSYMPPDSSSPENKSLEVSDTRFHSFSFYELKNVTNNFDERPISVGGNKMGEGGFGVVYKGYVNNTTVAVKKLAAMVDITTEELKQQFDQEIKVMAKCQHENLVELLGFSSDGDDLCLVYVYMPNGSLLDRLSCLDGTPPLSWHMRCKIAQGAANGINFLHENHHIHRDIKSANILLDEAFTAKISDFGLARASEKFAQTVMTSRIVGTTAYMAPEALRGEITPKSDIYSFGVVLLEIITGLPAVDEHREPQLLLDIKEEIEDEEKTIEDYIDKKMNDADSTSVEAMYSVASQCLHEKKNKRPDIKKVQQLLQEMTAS

SMILES	IC50
Cc1cccc(Nc2ncc(-c3nc4ccccc4s3)c(N[C@@H]3CC(C(C)(C)O)[C@@H](O)[C@H]3O)n2)c1 (stereo in doubt) [Example 118, 5-(benzo[d]thiazol-2-yl)-6-(((1R,2S,3R,4R)-2,3-dihydroxy-4-(2-hydroxypropan-2-yl)cyclopentyl)amino)-2-(m-tolylamino)pyrimidine]	16 nM
CC(C)(O)C1C[C@@H](Nc2nc(Nc3ccccc3)ncc2-c2nc3ccccc3s2)[C@H](O)[C@@H]1O (stereo in doubt) [Example 119, 5-(benzo[d]thiazol-2-yl)-6-(((1R,2S,3R,4R)-2,3-dihydroxy-4-(2-hydroxypropan-2-yl)cyclopentyl)amino)-2-(phenylamino)pyrimidine]	16 nM
CC(C)(O)C1C[C@@H](Nc2nc(Nc3ccnc(C(F)(F)F)c3)ncc2-c2nc3ccccc3s2)[C@H](O)[C@@H]1O (stereo in doubt) [Example 120, 5-(benzo[d]thiazol-2-yl)-6-(((1R,2S,3R,4R)-2,3-dihydroxy-4-(2-hydroxypropan-2-yl)cyclopentyl)amino)-2-((2-(trifluoromethyl)pyridin-4-yl)amino)pyrimidine]	10 nM
CC(C)(O)C1C[C@@H](Nc2nc(Nc3cccc(C(F)(F)F)c3)ncc2-c2nc3ccccc3s2)[C@H](O)[C@@H]1O (stereo in doubt) [Example 121, 5-(benzo[d]thiazol-2-yl)-6-(((1R,2S,3R,4R)-2,3-dihydroxy-4-(2-hydroxypropan-2-yl)cyclopentyl)amino)-2-((3-(trifluoromethyl)phenyl)amino)pyrimidine]	386 nM
CC(C)(O)C1C[C@@H](Nc2nc(Nc3cc(F)cc(F)c3)ncc2-c2nc3ccccc3s2)[C@H](O)[C@@H]1O (stereo in doubt) [Example 122, 5-(benzo[d]thiazol-2-yl)-2-((3,5-difluorophenyl)amino)-6-(((1R,2S,3R,4R)-2,3-dihydroxy-4-(2-hydroxypropan-2-yl)cyclopentyl)amino)pyrimidine]	163 nM
COc1cc(Nc2ncc(-c3ccc4cccc(C)c4n3)c(N[C@@H]3CC(C(C)(C)O)[C@@H](O)[C@H]3O)n2)ccn1 (stereo in doubt) [Example 123, 6-(((1R,2S,3R,4R)-2,3-dihydroxy-4-(2-hydroxypropan-2-yl)cyclopentyl)amino)-2-((2-methoxypyridin-4-yl)amino)-5-(8-methylquinolin-2-yl)pyrimidine]	712 nM
COc1ccc(Nc2ncc(-c3nc4ccccc4s3)c(N[C@@H]3CC(C(C)(C)O)[C@@H](O)[C@H]3O)n2)c(OC)c1 (stereo in doubt) [Example 125, 5-(benzo[d]thiazol-2-yl)-6-(((1R,2S,3R,4R)-2,3-dihydroxy-4-(2-hydroxypropan-2-yl)cyclopentyl)amino)-2-((2,4-dimethoxyphenyl)amino)pyrimidine]	60 nM
COc1cc(Nc2ncc(-c3nc4ccccc4s3)c(N[C@@H]3CC(C(C)(C)O)[C@@H](O)[C@H]3O)n2)ccn1 (stereo in doubt) [Example 126, 5-(benzo[d]thiazol-2-yl)-6-(((1R,2S,3R,4R)-2,3-dihydroxy-4-(2-hydroxypropane-2-yl)cyclopentyl)amino)-2-((2-methoxypyridin-4-yl)amino)pyrimidine]	9 nM
COc1cc(Nc2ncc(-c3nc4cnccc4s3)c(N[C@@H]3CC(C(C)(C)O)[C@@H](O)[C@H]3O)n2)ccn1 (stereo in doubt) [Example 136, 6-(((1R,2S,3R,4R)-2,3-dihydroxy-4-(2-hydroxypropan-2-yl)cyclopentyl)amino)-2-((2-methoxypyridin-4-yl)amino)-5-(thiazolo[4,5-c]pyridin-2-yl)pyrimidine]	0.7 nM
Cc1cc(Nc2ncc(-c3nc4cnccc4s3)c(N[C@@H]3CC(C(C)(C)O)[C@@H](O)[C@H]3O)n2)cc(C)n1 (stereo in doubt) [Example 137, 6-(((1R,2S,3R,4R)-2,3-dihydroxy-4-(2-hydroxypropan-2-yl)cyclopentyl)amino)-2-((2,6-dimethylpyridin-4-yl)amino)-5-(thiazolo[4,5-c]pyridin-2-yl)pyrimidine]	0.2 nM
Cc1cc(Nc2ncc(-c3nc4c(C)nccc4s3)c(N[C@@H]3CC(C(C)(C)O)[C@@H](O)[C@H]3O)n2)cc(C)n1 (stereo in doubt) [Example 138, 6-(((1R,2S,3R,4R)-2,3-dihydroxy-4-(2-hydroxypropan-2-yl)cyclopentyl)amino)-2-((2,6-dimethylpyridin-4-yl)amino)-5-(4-methylthiazolo[4,5-c]pyridin-2-yl)pyrimidine]	0.5 nM
Cc1cc(Nc2cc(N[C@H]3C[C@@H](C(C)(C)O)[C@H](O)[C@@H]3O)c(-c3nc(C)cs3)cn2)cc(C)n1 (stereo in doubt) [Example 162, (1S,2R,3S,5R)-3-((2-((2,6-dimethylpyridin-4-yl)amino)-5-(4-methylthiazol-2-yl)pyridin-4-yl)amino)-5-(2-hydroxypropan-2-yl)cyclopentane-1,2-diol]	37 nM
Cc1cc(Nc2cc(N[C@H]3C[C@@H](C(C)(C)O)[C@H](O)[C@@H]3O)c(-c3ccc4ccccc4n3)cn2)cc(C)n1 (stereo in doubt) [Example 164, (1S,2R,3 S,5R)-3-((2-((2,6-dimethylpyridin-4-yl)amino)-5-(quinolin-2-yl)pyridin-4-yl)amino)-5-(2-hydroxypropan-2-yl)cyclopentane-1,2-diol]	3 nM
OC[C@H]1C[C@@H](Nc2nc(Nc3ccccc3)ncc2-c2nc3ccccc3s2)[C@H](O)[C@@H]1O [Example 1, (1R,2S,3R,5R)-3-((5-(benzo[d]thiazol-2-yl)-2-(phenylamino)pyrimidin-4-yl)amino)-5-(hydroxymethyl)cyclopentane-1,2-diol]	20 nM
OC[C@H]1C[C@@H](Nc2nc(Nc3ccc(O)cc3)ncc2-c2nc3ccccc3s2)[C@H](O)[C@@H]1O [Example 2, (1R,2S,3R,5R)-3-((5-(benzo[d]thiazol-2-yl)-2-((4-hydroxyphenyl)amino)pyrimidin-4-yl)amino)-5-(hydroxymethyl)cyclopentane-1,2-diol]	5.8 nM
OC[C@H]1C[C@@H](Nc2nc(Nc3cccc(O)c3)ncc2-c2nc3ccccc3s2)[C@H](O)[C@@H]1O [Example 3, (1R,2S,3R,5R)-3-((5-(benzo[d]thiazol-2-yl)-2-((3-hydroxyphenyl)amino)pyrimidin-4-yl)amino)-5-(hydroxymethyl)cyclopentane-1,2-diol]	12 nM
COc1cccc(Nc2ncc(-c3nc4ccccc4s3)c(N[C@@H]3C[C@H](CO)[C@@H](O)[C@H]3O)n2)c1 [Example 4, (1R,2S,3R,5R)-3-((5-(benzo[d]thiazol-2-yl)-2-((3-methoxyphenyl)amino)pyrimidin-4-yl)amino)-5-(hydroxymethyl)cyclopentane-1,2-diol]	137 nM
Nc1ncc(-c2nc3ccccc3o2)c(N[C@@H]2C[C@H](CO)[C@@H](O)[C@H]2O)n1 [Example 5, (1R,2S,3R,5R)-3-((2-amino-5-(benzo[d]oxazol-2-yl)pyrimidin-4-yl)amino)-5-(hydroxymethyl)cyclopentane-1,2-diol]	2560 nM
OC[C@H]1C[C@@H](Nc2nc(Nc3ccnc(F)c3)ncc2-c2nc3ccccc3s2)[C@H](O)[C@@H]1O [Example 6, (1R,2S,3R,5R)-3-((5-(benzo[d]thiazol-2-yl)-2-((2-fluoropyridin-4-yl)amino)pyrimidin-4-yl)amino)-5-(hydroxymethyl)cyclopentane-1,2-diol]	2560 nM
COc1cc(Nc2ncc(-c3nc4ccccc4s3)c(N[C@@H]3C[C@H](CO)[C@@H](O)[C@H]3O)n2)ccn1 [Example 7, (1R,2S,3R,5R)-3-((5-(benzo[d]thiazol-2-yl)-2-((2-methoxypyridin-4-yl)amino)pyrimidin-4-yl)amino)-5-(hydroxymethyl)cyclopentane-1,2-diol]	4.6 nM
Cc1cnccc1Nc1ncc(-c2nc3ccccc3s2)c(N[C@@H]2C[C@H](CO)[C@@H](O)[C@H]2O)n1 [Example 8, (1R,2S,3R,5R)-3-((5-(benzo[d]thiazol-2-yl)-2-((3-methylpyridin-4-yl)amino)pyrimidin-4-yl)amino)-5-(hydroxymethyl)cyclopentane-1,2-diol]	516 nM
Cc1cc(Nc2ncc(-c3nc4ccccc4s3)c(N[C@@H]3C[C@H](CO)[C@@H](O)[C@H]3O)n2)cc(C)n1 [Example 9, (1R,2S,3R,5R)-3-((5-(benzo[d]thiazol-2-yl)-2-((2,6-dimethylpyridin-4-yl)amino)pyrimidin-4-yl)amino)-5-(hydroxymethyl)cyclopentane-1,2-diol]	0.32 nM
COc1ccc(Nc2ncc(-c3nc4ccccc4s3)c(N[C@@H]3C[C@H](CO)[C@@H](O)[C@H]3O)n2)cc1 [Example 10, (1R,2S,3R,5R)-3-((5-(benzo[d]thiazol-2-yl)-2-((4-methoxyphenyl)amino)pyrimidin-4-yl)amino)-5-(hydroxymethyl)cyclopentane-1,2-diol]	14 nM
Nc1ncc(-c2nc(-c3ccccc3)cs2)c(N[C@@H]2C[C@H](CO)[C@@H](O)[C@H]2O)n1 [Example 11, (1R,2S,3R,5R)-3-((2-amino-5-(4-phenylthiazol-2-yl)pyrimidin-4-yl)amino)-5-(hydroxymethyl)cyclopentane-1,2-diol]	409 nM
